Data reported in patent publication US7868005B2, “Pyrazinyl substituted piperazine-piperidines with CXCR3 antagonist activity” (Schering Corporation, priority 2005, dated 2011).

biological target: T1, human CXCR3 (N-delta 4) (Homo sapiens, UniProt P49682); test: Human CXCR3 (N-delta 4) Scintillation Proximity Assay (SPA), [125I] IP-10 binding to Ba/F3-hCXCR3 membranes; conditions: IC50 rating, Table 1; read-out: IC50
T1 construct: CD8 leader (N); Flag; expressed in transfected cells; membranes prepared
T1 sequence (P49682 5-368 limits assumed): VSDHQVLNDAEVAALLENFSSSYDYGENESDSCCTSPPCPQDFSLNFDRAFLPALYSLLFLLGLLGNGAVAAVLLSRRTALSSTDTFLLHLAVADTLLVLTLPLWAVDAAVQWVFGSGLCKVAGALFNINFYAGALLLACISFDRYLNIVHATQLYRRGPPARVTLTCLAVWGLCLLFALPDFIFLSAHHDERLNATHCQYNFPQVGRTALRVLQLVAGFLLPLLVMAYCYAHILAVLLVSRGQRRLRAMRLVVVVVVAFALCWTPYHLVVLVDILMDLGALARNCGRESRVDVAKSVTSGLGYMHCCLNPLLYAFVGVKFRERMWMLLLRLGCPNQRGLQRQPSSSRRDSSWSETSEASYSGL

Row | IC50 | SMILES
1 | < 25 nM | CC[C@H]1CN(c2ncc(C(=O)NC3CC3)nc2C)CCN1C1CCN(C(=O)c2ccc(F)c(F)c2)CC1 [compound 461]
2 | < 25 nM | CC[C@H]1CN(c2ncc(C(=O)NC3CC3)nc2C)CCN1C1CCN(C(=O)c2ccc(F)cc2F)CC1 [compound 462]
3 | < 25 nM | CC[C@H]1CN(c2ncc(C(=O)NC3CC3)nc2C)CCN1C1CCN(C(=O)c2ccc(F)c(OC)c2)CC1 [compound 467]
4 | < 25 nM | CC[C@H]1CN(c2ncc(C(=O)NC3CC3)nc2C)[C@H](C)CN1C1CCN(C(=O)c2ccc(Cl)cc2)CC1 [compound 468]
5 | < 25 nM | CC[C@H]1CN(c2ncc(C(=O)NC3CC3)nc2C)CCN1C1CCN([C@@H](CO)c2ccc(Cl)cc2)CC1 [compound 469]
6 | < 25 nM | CC[C@H]1CN(c2ncc(C(=O)NC3CC3)nc2C)CCN1C1CCN([C@H](CO)c2ccc(Cl)cc2)CC1 [compound 470]
7 | < 25 nM | CC[C@H]1CN(c2ncc(C(=O)NC3CC3)nc2C)CCN1C1CCN(Cc2ccc(C(F)(F)F)cc2)CC1 [compound 473]
8 | < 25 nM | CC[C@H]1CN(c2ncc(C(=O)NC)nc2C)CCN1C1CCN(C(=O)c2ccc(OC(F)(F)F)cc2)CC1 [compound 475]
9 | < 25 nM | CC[C@H]1CN(c2ncc(C(=O)NC)nc2C(F)(F)F)CCN1C1CCN(C(=O)c2ccc(Cl)cc2)CC1 [compound 477]
10 | < 25 nM | CC[C@H]1CN(c2ncc(C(N)=O)nc2C(F)(F)F)[C@H](C)CN1C1CCN(C(=O)c2ccc(Cl)cc2)CC1 [compound 478]
11 | < 25 nM | CC[C@H]1CN(c2ncc(C(=O)NC3CC3)nc2C)CCN1C1CCN(C(=O)c2ccc(C(F)(F)F)cc2)CC1 [compound 483]
12 | < 25 nM | CCNC(=O)c1cnc(N2CCN(C3CCN(C(=O)c4ccc(Cl)cc4)CC3)[C@@H](CC)C2)c(C(F)(F)F)n1 [compound 484]
13 | < 25 nM | CC[C@H]1CN(c2ncc(C(=O)NC3CC3)nc2C)CCN1C1CCN([C@@H](C(=O)OC)c2ccc(Cl)cc2)CC1 [compound 485]
14 | < 25 nM | CCc1ccc(C(=O)N2CCC(N3CCN(c4ncc(C(=O)NC5CC5)nc4C(F)(F)F)C[C@@H]3CC)CC2)cc1 [compound 487]
15 | < 25 nM | CC[C@H]1CN(c2ncc(C(=O)NC3CC3)nc2C(F)(F)F)CCN1C1CCN(C(=O)c2ccc(Cl)cc2)CC1 [compound 489]
16 | < 25 nM | CC[C@H]1CN(c2ncc(C(=O)NC3CC3)nc2C(F)(F)F)CCN1C1CCN(C(=O)c2ccc(F)c(F)c2)CC1 [compound 490]

The next lines start with the compound.

Row | SMILES | IC50
17 | CC[C@H]1CN(c2ncc(C(N)=O)nc2C)CCN1C1CCN([C@@H](C(=O)OC)c2ccc(Cl)cc2)CC1 [compound 463] | < 25 nM
18 | CC[C@H]1CN(c2ncc(C(N)=O)nc2C)CCN1C1CCN(C(C(=O)OC)c2ccc(Cl)cc2)CC1 (stereo partly shown) [compound 464] | < 25 nM
19 | CC[C@H]1CN(c2ncc(C(=O)OC)nc2C)[C@H](C)CN1C1CCN([C@@H](CO)c2ccc(Cl)cc2)CC1 [compound 465] | < 25 nM
20 | CC[C@H]1CN(c2ncc(C(N)=O)nc2C)[C@H](C)CN1C1CCN(Cc2ccc(OC(F)(F)F)cc2)CC1 [compound 466] | < 25 nM
21 | CC[C@H]1CN(c2ncc(C(=O)NC3CC3)nc2C)CCN1C1CCN([C@@H](CO)c2ccc(F)c(F)c2)CC1 [compound 471] | < 25 nM
22 | CC[C@H]1CN(c2ncc(C(=O)NC3CC3)nc2C)CCN1C1CCN([C@H](CO)c2ccc(F)c(F)c2)CC1 [compound 472] | < 25 nM
23 | CCNC(=O)c1cnc(N2C[C@H](CC)N(C3CCN(C(=O)c4ccc(Cl)cc4)CC3)C[C@H]2C)c(Cl)n1 [compound 474] | < 25 nM
24 | CC[C@H]1CN(c2ncc(C(N)=O)nc2Cl)CCN1C1CCN([C@@H](C(=O)OC)c2ccc(Cl)cc2)CC1 [compound 476] | < 25 nM
25 | CC[C@H]1CN(c2ncc(C(=O)NC3(C)CC3)nc2C)[C@H](C)CN1C1CCN(C(=O)c2ccc(Cl)cc2)CC1 [compound 479] | < 25 nM
26 | CC[C@H]1CN(c2nc(N)c(C(=O)NC3CC3)nc2C)[C@H](C)CN1C1CCN(C(=O)c2ccc(Cl)cc2)CC1 [compound 480] | < 25 nM
27 | CC[C@H]1CN(c2ncc(C(=O)NC3CC3)nc2C)[C@H](C)CN1C1CCN([C@H](CO)c2ccc(Cl)cc2)CC1 [compound 481] | < 25 nM
28 | CC[C@H]1CN(c2nc(N)c(C(=O)NCCO)nc2C)[C@H](C)CN1C1CCN(C(=O)c2ccc(Cl)cc2)CC1 [compound 482] | < 25 nM
29 | CC[C@H]1CN(c2ncc(C(=O)NC3CC3)nc2C)CCN1C1CCN([C@@H](C(=O)OC)c2ccc(F)c(F)c2)CC1 [compound 486] | < 25 nM
30 | CC[C@H]1CN(c2ncc(C(=O)NCCO)nc2C)[C@H](C)CN1C1CCN(Cc2ccc(OC(F)(F)F)cc2)CC1 [compound 488] | < 25 nM
31 | CC[C@H]1CN(c2ncc(C(=O)NC3CC3)nc2C)CCN1C1CCN(Cc2ccc(Cl)c(OCCS(C)(=O)=O)c2)CC1 [compound 492] | < 25 nM
